Data on three molecules can be found in US20250296914A1, “ANTIVIRAL COMPOUNDS AND COMPOSITIONS THEREFROM” (CONSEJO SUPERIOR DE INVESTIGACIONES CIENTÍFICAS, priority 2022, published 2025).

Where only a bound is given, the exact number is not on record here.

Data set [1] concerns SARS-CoV-2 stock strain NL/2020. In words: Intracellular viral antigen (N protein) accumulation by immunofluorescence, Calu3. It is filed as cell-based. To be noted: Severe acute respiratory syndrome coronavirus 2; Calu-3, MOI 0.005, viral antigen staining, 48 h.
Data set [2] is described as follows: in vitro. To be noted: human.
The test system of another data set is WNV-GFP virus. It is filed as cell-based, West Nile Virus. The following applies: Huh-7, MOI 0.01, 48 h, FIG. 2.
Data set [3] concerns SARS-CoV-2 stock strain NL/2020. Kind of data set: Intracellular viral antigen (N protein) accumulation by immunofluorescence, Vero-E6. It is filed as cell-based. To be noted: Severe acute respiratory syndrome coronavirus 2, Vero C1008; Vero-E6, MOI 0.005, viral antigen staining, 24 h.
Data set [4] is described as follows: in vitro. The following applies: human. The source holds these as a separate data set.
For data set [5], the system named is SARS-CoV-2 stock strain NL/2020. In words: Protective effect against virus-induced cytopathic effect (crystal violet staining of Vero-E6 monolayer). It is filed as cell-based. The following applies: Severe acute respiratory syndrome coronavirus 2, Vero C1008, 72 h, Vero-E6, SARS-CoV-2 MOI 0.001, 72 h; for minimal effective concentration: 50 to 0.78 μM tested, read-out: PC MIN (lowest protective concentration); for EC50: lowest fully protecting concentration averaged with next lower dilution, read-out: ESTIMATED EC50.

A further data set has as its system VSV-GFP virus. It is filed as cell-based, Vesicular Stomatitis Virus.
The subject of data set [6] is SARS-CoV-2 stock strain NL/2020. In words: Intracellular viral antigen (N protein) accumulation by immunofluorescence, A549-ACE2. It is filed as cell-based. The following applies: Severe acute respiratory syndrome coronavirus 2; A549-ACE2, MOI 0.005, viral antigen staining, 48 h.
A short description of data set [7]: in vitro. To be noted: African green monkey.
In a further data set the test system is hCoV-229E-GFP virus. The format is cell-based, Human coronavirus 229E.
The test system of data set [8] is SARS-CoV-2 stock strain NL/2020. Kind of data set: Intracellular viral RNA quantification by RT-qPCR in A549-ACE2 cells. The format is cell-based. On the technique in general: Real-time PCR tracks product formation cycle by cycle.

Regarding `COC(=O)c1cc(-c2ccc(N3CCOCC3)cc2)ccc1NC(C#N)[C@H](Cc1c[nH]c2ccccc12)NC(=O)OC(C)(C)C` (stereo partly drawn) [(Ia), methyl 4-(((2S)-2-((tert-butoxycarbonyl)amino)-1-cyano-3-(1H-indol-3-yl)propyl)-amino)-4′-morpholino-[1,1′-biphenyl]-3-carboxylate], the EC50 (commonly the concentration at which the effect is half-maximal) is 200 nM in data set [1], 300 nM in [3], 580 nM in data set [5] and 1000 nM in [6]. Moreover, the EC90 – broadly, the point of the concentration-response curve where the effect stands at 90% – is 2000 nM in data set [1], 500 nM in data set [3] and 1800 nM in [6]. The CC50 at 48 h in “in vitro [2]”, in “in vitro [4]” and in “in vitro [7]” was greater than 50000 nM each time. Moreover, in the data set with WNV-GFP virus, the “Prevention of infection by West Nile Virus (GFP expression, in words)” value is “not being suitable for preventing the infection”. In data set [5], the minimal effective concentration came out at 0.78 µM. The “Prevention of infection by Vesicular Stomatitis Virus (GFP expression, in words)” value in the data set on VSV-GFP virus is reported as “not being suitable for preventing the infection”. For the same molecule, the “Prevention of infection with 229E-GFP (GFP expression, in words)” value (shortened to “Prevention of infection with 229E-GFP”) in the data set on hCoV-229E-GFP virus is on record as “suitable for preventing efficiently the infection”.
Turning to `CC(C)(C)OC(=O)N[C@@H](Cc1c[nH]c2ccccc12)C(C#N)Nc1ccc(Br)cc1C(=O)c1ccccc1` (stereo partly drawn) [(Ic), (3S)-2-((4-Bromo-2-benzoylphenyl)amino)-4-(1H-indol-3-yl)-3-(tert-butoxycarbonylamino)butanenitrile], the half-maximal effective concentration (EC50) is 1200 nM in [1], 200 nM in data set [3], 580 nM in data set [5] and 1000 nM in [6]. Moreover, the EC90 in [1] was determined as 1800 nM; in data set [3], 300 nM; in data set [6], 2100 nM. In data set [8] (A549-ACE2, MOI 0.005, 48 h, compound concentration 4 μM, vs DMSO), the “LOG viral RNA reduction” value stood at 4.26 LOG. For the same molecule, the “Prevention of SARS-CoV-2 propagation (in words)” value in data set [8] (A549-ACE2, conclusion from Table 5) was “effective in preventing propagation of SARS-CoV-2”. In the data set on WNV-GFP virus, the “Prevention of infection by West Nile Virus (GFP expression, in words)” value was “not being suitable for preventing the infection”. The minimal effective concentration in [5] turned out to be 0.78 µM. Also, the “Prevention of infection by Vesicular Stomatitis Virus (GFP expression, in words)” value in the data set with VSV-GFP virus was “not being suitable for preventing the infection”. Further, the CC50 at 48 h in the data set “in vitro [7]” was greater than 50000 nM. Besides, the “Prevention of infection with 229E-GFP” value in the data set with hCoV-229E-GFP virus is “suitable for preventing efficiently the infection”.
As to `COC(=O)c1cc(-c2ccc(N3CCCC3)nc2)ccc1NC(C#N)[C@H](Cc1c[nH]c2ccccc12)NC(=O)OC(C)(C)C` (stereo partly drawn) [(Iq), methyl 2-(((2S)-2-((tert-butoxycarbonyl)amino)-1-cyano-3-(1H-indol-3-yl)propyl)amino)-5-(6-(pyrrolidin-1-yl)pyridin-3-yl)benzoate], the EC50 in [1] is 300 nM; in data set [3], 200 nM; in data set [5], 1170 nM; in data set [6] it was 1500 nM. Also, the concentration for an effect of 90% (EC90) was found to be 2500 nM in data set [1], 900 nM in [3] and 5000 nM in data set [6]. Also, the CC50 at 48 h in “in vitro [2]”, in “in vitro [4]” and in “in vitro [7]” was greater than 50000 nM each time. Also, the “Prevention of infection by West Nile Virus (GFP expression, in words)” value in the data set on WNV-GFP virus was “not being suitable for preventing the infection”. Further, in data set [5], the minimal effective concentration stood at 1.56 µM. Moreover, the “Prevention of infection by Vesicular Stomatitis Virus (GFP expression, in words)” value with VSV-GFP virus is on record as “not being suitable for preventing the infection”. Besides, the “Prevention of infection with 229E-GFP” value in the data set with hCoV-229E-GFP virus is “suitable for preventing efficiently the infection”.
